Assay results taken from patent publication US10865191B2, “Heterocyclic compounds useful as modulators of TNF alpha” (BRISTOL-MYERS SQUIBB COMPANY, priority 2015, dated 2020).

Molecular target: TNFα (Homo sapiens, UniProt P01375)
Test: TNF induced HEK-Blue assay (NF-kB-driven secreted alkaline phosphatase reporter)
Assay type: cell-based
Details: TNFα 0.5 ng/mL, HEK-Blue-CD40L cells, 18 h; read-out: TNF induced HEK-Blue assay IC50 value
In short: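 HEK-Blue-CD40L cells (NF-kB-driven SEAP reporter), 20,000/well, added after 30 min pre-incubation of compound (0.004–25 μM final) with TNFα 0.5 ng/mL final at 37 °C; 18 h incubation. SEAP read with QUANTI-Blue at 620 nm; IC50 from 4-parameter logistic fit, normalized to unstimulated and stimulated DMSO controls.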

TNFα, sequence (P01375 77-233 limits assumed): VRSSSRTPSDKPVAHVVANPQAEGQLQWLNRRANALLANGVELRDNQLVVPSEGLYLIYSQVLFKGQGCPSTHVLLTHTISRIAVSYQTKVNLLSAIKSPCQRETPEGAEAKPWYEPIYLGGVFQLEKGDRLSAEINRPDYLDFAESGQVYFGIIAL

O=C(O)[C@@H]1CN(c2ncc(-c3ccc4ncc(Cl)c(N[C@@H](c5ccccc5F)C(F)F)c4c3)cn2)CCN1 [Example 74, (S)-4-(5-(3-chloro-4-(((S)-2,2-difluoro-1-(2-fluorophenyl)ethyl)amino)quinolin-6-yl)pyrimidin-2-yl)piperazine-2-carboxylic acid]
IC50: 1 to 10 µM
